Assay results as given in patent US8658661B2, “Oxadiazole inhibitors of leukotriene production” (Boehringer Ingelheim International GmbH, priority 2010, dated 2014).

Experiments:
[1] = target: T1, recombinant human FLAP protein (Homo sapiens, UniProt P20292); test: FLAP binding assay (SPA, displacement of [125I]L-691,831); conditions: membranes of sf9 cells expressing recombinant human FLAP; [125I]L-691,831 probe; read-out: FLAP binding IC50
T1 construct: made in house; host or cells: Sf9 insect cells (100,000×g membrane pellet used)
T1 sequence (P20292 1-161): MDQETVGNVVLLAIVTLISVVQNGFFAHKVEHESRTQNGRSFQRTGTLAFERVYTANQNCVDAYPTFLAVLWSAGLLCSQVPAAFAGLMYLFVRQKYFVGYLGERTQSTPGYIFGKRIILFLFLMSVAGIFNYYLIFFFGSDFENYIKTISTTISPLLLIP
Description: Assessment of Biological Properties 1. Binding Assay
Compounds are assessed for the ability to bind to FLAP in a binding assay that measures compound-specific displacement of an iodinated (^125I) FLAP inhibitor via a Scintillation Proximity Assay format (adapted from S. Charleson et al., Mol. Pharmacol., 1992, 41, 873-879).
Cell pellets produced from sf9 insect cells expressing recombinant human FLAP protein are resuspended in buffer A [15 mM Tris-HCl (pH 7.5), 2 mM MgCl2, 0.3 mM EDTA, 1 mM PMSF]. The cells are lysed with a Dounce homogenizer and the material is centrifuged at 10,000×g for 10 minutes. The supernatant is then collected and centrifuged at 100,000×g for 60 minutes. To prepare membrane protein for an assay, an aliquot of the 100,000×g pellet is resuspended in 1 ml of buffer A, Dounce homogenized, and finally subjected to polytron mixing (30 seconds). Membrane protein (25 μl, 5 μg) is mixed with WGA SPA beads (Amersham) and stirred for 1 h. […] (final concentrations: beads, 200 μg/well; protein, 5 μg/well; [^125I] probe, 0 08 nM/well (17 nCi/well). The plates are shaken for 2 h before reading on a Microbeta plate reader. Non-specific binding is determined by the addition of 10 μM cold L-691,831 compound.

[2] = test system: synthesis of LTB4 in human whole blood; test: Human whole blood assay (inhibition of LTB4 synthesis, calcimycin stimulated); assay type: cell-based; conditions: heparinized human whole blood, calcimycin 20 μM, plasma LTB4
Description: Compounds are additionally tested in a human whole blood assay to determine their ability to inhibit the synthesis of LTB4 in a cellular system. Compounds are combined with heparinized human whole blood and incubated for 15 minutes at 37° C. Calcimycin (20 μM final, prepared in phosphate-buffered saline, pH 7.4) is then added and the mixture is incubated for another 30 minutes at 37° C. The samples are centrifuged for 5 min at low speed (1500×g) and the plasma layer is removed. Plasma LTB4 concentrations are then measured using an antibody-based homogenous time-resolved fluorescence method (CisBio, Bedford, Mass.).

| SMILES | IC50 [1] | IC50 [2] |
| --- | --- | --- |
| COCCNc1ccc(-c2nc(C(C)(c3ccc(-c4cnc(N)nc4)cc3)C3CC3)no2)cn1 (stereo not drawn) [Example 38, 5-{4-[1-cyclopropyl-1-(5-{6-[(2-methoxyethyl)amino]pyridin-3-yl}-1,2,4-oxadiazol-3-yl)ethyl]phenyl}pyrimidin-2-amine] | 2.2 nM | 97 nM |
| CC(C)(O)CNc1ccc(-c2nc(C(C)(c3ccc(-c4cnc(N)nc4)cc3)C3CC3)no2)cn1 (stereo not drawn) [Example 39, 1-{[5-(3-{1-[4-(2-aminopyrimidin-5-yl)phenyl]-1-cyclopropylethyl}-1,2,4-oxadiazol-5-yl)pyridin-2-yl]amino}-2-methylpropan-2-ol] | 2.1 nM | 110 nM |
| CC(O)CNc1ccc(-c2nc(C(C)(c3ccc(-c4cnc(N)nc4)cc3)C3CC3)no2)cn1 (stereo not drawn) [Example 40, 1-{[5-(3-{1-[4-(2-aminopyrimidin-5-yl)phenyl]-1-cyclopropylethyl}-1,2,4-oxadiazol-5-yl)pyridin-2-yl]amino}propan-2-ol] | 2.3 nM | 100 nM |
| CC(c1ccc(-c2cnc(N)nc2)cc1)(c1noc(-c2ccc(NCCS(C)(=O)=O)nc2)n1)C1CC1 (stereo not drawn) [Example 41, 5-(4-{1-cyclopropyl-1-[5-(6-{[2-(methylsulfonyl)ethyl]amino}pyridin-3-yl)-1,2,4-oxadiazol-3-yl]ethyl}phenyl)pyrimidin-2-amine] | 2.2 nM | 170 nM |
| CC(C)(O)CNc1cnc(-c2nc(C(C)(c3ccc(-c4cnc(N)nc4)cc3)C3CC3)no2)cn1 (stereo not drawn) [Example 44, 1-{[5-(3-{1-[4-(2-aminopyrimidin-5-yl)phenyl]-1-cyclopropylethyl}-1,2,4-oxadiazol-5-yl)pyrazin-2-yl]amino}-2-methylpropan-2-ol] | 2.2 nM | 150 nM |
| CC(C)(CO)Nc1cnc(-c2nc(C(C)(c3ccc(-c4cnc(N)nc4)cc3)C3CC3)no2)cn1 (stereo not drawn) [Example 45, 2-{[5-(3-{1-[4-(2-aminopyrimidin-5-yl)phenyl]-1-cyclopropylethyl}-1,2,4-oxadiazol-5-yl)pyrazin-2-yl]amino}-2-methylpropan-1-ol] | 3.1 nM | 140 nM |
| CC(C)(O)CNc1cnc(-c2nc([C@@](C)(c3ccc(-c4cnc(N)nc4)cc3)C3CC3)no2)cn1 [Example 50, 1-{[5-(3-{(1R)-1-[4-(2-aminopyrimidin-5-yl)phenyl]-1-cyclopropylethyl}-1,2,4-oxadiazol-5-yl)pyrazin-2-yl]amino}-2-methylpropan-2-ol] | 1.3 nM | 95 nM |
| COCCn1cc(-c2nc([C@@](C)(c3ccc(-c4cnc(N)nc4)cc3)C3CC3)no2)cn1 [Example 52, 5-{4-[(1R)-1-cyclopropyl-1-{5-[1-(2-methoxyethyl)-1H-pyrazol-4-yl]-1,2,4-oxadiazol-3-yl}ethyl]phenyl}pyrimidin-2-amine] | 2.4 nM | 26 nM |
| COCCn1cc(-c2nc([C@](C)(c3ccc(-c4cnc(N)nc4)cc3)C3CC3)no2)cn1 [Example 53, 5-{4-[(1S)-1-cyclopropyl-1-{5-[1-(2-methoxyethyl)-1H-pyrazol-4-yl]-1,2,4-oxadiazol-3-yl}ethyl]phenyl}pyrimidin-2-amine] | 27 nM | 450 nM |
| C[C@](c1ccc(-c2cnc(N)nc2)cc1)(c1noc(-c2cnn(C3COC3)c2)n1)C1CC1 [Example 55, 5-{4-[(1S)-1-cyclopropyl-1-{5-[1-(oxetan-3-yl)-1H-pyrazol-4-yl]-1,2,4-oxadiazol-3-yl}ethyl]phenyl}pyrimidin-2-amine] | 11 nM | 200 nM |
| Cn1cc(-c2nc(C(c3ccc(-c4cnc(N)nc4)cc3)C(C)(C)C)no2)cn1 (stereo not drawn) [Example 58, 5-(4-{2,2-dimethyl-1-[5-(1-methyl-1H-pyrazol-4-yl)-1,2,4-oxadiazol-3-yl]propyl}phenyl)pyrimidin-2-amine] | 11 nM | 190 nM |
| CN(C)C(=O)Cn1cc(-c2nc(C(C)(c3ccc(-c4cnc(N)nc4)cc3)C3CC3)no2)cn1 (stereo not drawn) [Example 59, 2-[4-(3-{1-[4-(2-aminopyrimidin-5-yl)phenyl]-1-cyclopropylethyl}-1,2,4-oxadiazol-5-yl)-1H-pyrazol-1-yl]-N,N-dimethylacetamide] | 1.1 nM | 76 nM |
| Cn1cc(-c2nc([C@@](C)(c3ccc(-c4cnc(N)nc4)cc3)C3CC3)no2)cn1 [Example 61, 5-(4-{(1R)-1-cyclopropyl-1-[5-(1-methyl-1H-pyrazol-4-yl)-1,2,4-oxadiazol-3-yl]ethyl}phenyl)pyrimidin-2-amine] | 1.3 nM | 15 nM |

More lines, in order of falling IC50 [1], values ahead:

| IC50 [1] | IC50 [2] | SMILES |
| --- | --- | --- |
| 19 nM | 680 nM | C[C@](c1ccc(-c2cnc(N)nc2)cc1)(c1noc(-c2cn[nH]c2)n1)C1CC1 [Example 49, 5-(4-{(1S)-1-cyclopropyl-1-[5-(1H-pyrazol-4-yl)-1,2,4-oxadiazol-3-yl]ethyl}phenyl)pyrimidin-2-amine] |
| 18 nM | 350 nM | Cn1cc(-c2nc([C@](C)(c3ccc(-c4cnc(N)nc4)cc3)C3CC3)no2)cn1 [Example 62, 5-(4-{(1S)-1-cyclopropyl-1-[5-(1-methyl-1H-pyrazol-4-yl)-1,2,4-oxadiazol-3-yl]ethyl}phenyl)pyrimidin-2-amine] |
| 6.8 nM | 190 nM | C[C@@](c1ccc(-c2cnc(N)nc2)cc1)(c1noc(-c2cn[nH]c2)n1)C1CC1 [Example 48, 5-(4-{(R)-1-cyclopropyl-1-[5-(1H-pyrazol-4-yl)-[1,2,4]oxadiazol-3-yl]-ethyl}-phenyl)-pyrimidin-2-ylamine] |
| 4 nM | 140 nM | CNC(=O)Cn1cc(-c2nc(C(C)(c3ccc(-c4cnc(N)nc4)cc3)C3CC3)no2)cn1 (stereo not drawn) [Example 60, 2-[4-(3-{1-[4-(2-aminopyrimidin-5-yl)phenyl]-1-cyclopropylethyl}-1,2,4-oxadiazol-5-yl)-1H-pyrazol-1-yl]-N-methylacetamide] |
| 3.9 nM | 140 nM | CC(C)(O)CNc1cnc(-c2nc([C@](C)(c3ccc(-c4cnc(N)nc4)cc3)C3CC3)no2)cn1 [Example 51, 1-{[5-(3-{(1S)-1-[4-(2-aminopyrimidin-5-yl)phenyl]-1-cyclopropylethyl}-1,2,4-oxadiazol-5-yl)pyrazin-2-yl]amino}-2-methylpropan-2-ol] |
| 2.6 nM | 27 nM | C[C@@](c1ccc(-c2cnc(N)nc2)cc1)(c1noc(-c2cnn(C3COC3)c2)n1)C1CC1 [Example 54, 5-{4-[(1R)-1-cyclopropyl-1-{5-[1-(oxetan-3-yl)-1H-pyrazol-4-yl]-1,2,4-oxadiazol-3-yl}ethyl]phenyl}pyrimidin-2-amine] |
| 2.5 nM | 30 nM | CC(c1ccc(-c2cnc(N)nc2)cc1)(c1noc(-c2cnn(C3COC3)c2)n1)C1CC1 (stereo not drawn) [Example 43, 5-[4-(1-cyclopropyl-1-{5-[1-(oxetan-3-yl)-1H-pyrazol-4-yl]-1,2,4-oxadiazol-3-yl}ethyl)phenyl]pyrimidin-2-amine] |
| 1.5 nM | 25 nM | COCCNc1cnc(-c2nc(C(C)(c3ccc(-c4cnc(N)nc4)cc3)C3CC3)no2)cn1 (stereo not drawn) [Example 42, 5-{4-[1-cyclopropyl-1-(5-{5-[(2-methoxyethyl)amino]pyrazin-2-yl}-1,2,4-oxadiazol-3-yl)ethyl]phenyl}pyrimidin-2-amine] |
